Measured values: PMC9820279 (International Journal of Molecular Sciences, 2022)
Where two headings read alike, the source gives them in different places.

Tested on: HBMEC monolayer
[1] = matrix ASFE extract 24 µg/mL, 2 h incubation, n.d = not detected in lower compartment
[2] = matrix ASFE extract 24 µg/mL, 4 h incubation, n.d = not detected in lower compartment

`C=C(C)C1CCC2(C)OC2C1` (stereo not drawn) [Limonene Epoxide] was tested, and the “Te % (SEM) 2 h” value was 19.5 (1.2) % and the “Te % (SEM) 4 h” value was 42.4 (3.2) %.
For `CCC(O)C1CC(C)C2(CC(=O)C3(C)C4=C(CCC32C)C2(C)CCC(=O)C(C)(CO)C2CC4)O1` [Triterpene, (23S,24S)-17,23-Epoxy-24,29-dihydroxy-27-norlanost-8-ene-3,15-dione], the “Te % (SEM) 2 h” value [1] was 30.4 (1.7) % and the “Te % (SEM) 4 h” value [2] was 82.9 (5.3) %.
For `C=C1/C=C/[C@H](C(C)C)CC/C(C)=C/CC1` [Germacrene D], the “Te % (SEM) 2 h” value was 3.2 (0.2) % and the “Te % (SEM) 4 h” value was 6.6 (0.4) %.
For `C[C@H]1[C@H](C)CC[C@]2(C(=O)O)CC[C@]3(C)C(=CC[C@@H]4[C@@]5(C)C[C@@H](O)[C@H](O)C(C)(C)[C@@H]5CC[C@]43C)[C@H]12` [Corosolic acid], the “Te % (SEM) 2 h” value [1] was 33.4 (1.9) % and the “Te % (SEM) 4 h” value [2] was 39.6 (1.9) %.
`C=C(C)[C@@H]1CCC2=CC(=O)C[C@@H](C)[C@]2(C)C1` [Nootkatone] was tested, and the “Te % (SEM) 2 h” value (human) was 29.9 (0.9) % and the “Te % (SEM) 4 h” value (human) was 43.0 (3.4) %.
In the case of γ-silenene, the “Te % (SEM) 2 h” value is reported as 52.8 (3.8) % and the “Te % (SEM) 4 h” value is reported as 53.8 (2.8) %.
`CC[C@H](/C=C/[C@@H](C)[C@H]1CC[C@H]2[C@@H]3CC=C4C[C@@H](O)CC[C@]4(C)[C@H]3CC[C@]12C)C(C)C` [Stigmasterol] was tested, and the “Te % (SEM) 2 h” value (human) was 40.4 (2.2) % and the “Te % (SEM) 4 h” value (human) was 64.5 (0.4) %.
With `CC1=CC[C@@H](C(C)(C)O)CC1` [L-α-Terpineol] the “Te % (SEM) 2 h” value was 17.6 (1.3) % and the “Te % (SEM) 4 h” value was 59.3 (0.4) %.
For `CC1(C)C[C@H](O)C[C@]2(C)OC(=O)C=C12` [Isololiolide], the “Te % (SEM) 2 h” value was 33.0 (2.6) % and the “Te % (SEM) 4 h” value was 61.4 (4.3) %.
`C=CC(C)(O)CCC=C(C)CCC=C(C)C` (mixture of isomers) [Nerolidol] was tested, and the “Te % (SEM) 2 h” value (human) was 30.1 (2.5) % and the “Te % (SEM) 4 h” value (human) was 59.8 (2.4) %.
`O=C(O)c1cc(O)c(O)c(O)c1` [Gallic acid] was tested, and the “Te % (SEM) 2 h” value (human, 2 h, 30 µg/mL) was 33.0 (1.9)/39.9 (1.4) %, the “Te % (SEM) 4 h” value (human, 4 h, 30 µg/mL) was 62.9 (0.3)/67.9(1.3) % and the “Te % (SEM) 2 h” value [1] was 33.0 (1.9)/39.9 (1.4) %. The “Te % (SEM) 4 h” value [2] was 62.9 (0.3)/67.9(1.3) %.
With `CC[C@@H](CC[C@@H](C)[C@H]1CC[C@H]2[C@@H]3CC=C4C[C@@H](O)CC[C@]4(C)[C@H]3CC[C@]12C)C(C)C` [γ-Sitosterol] the “Te % (SEM) 2 h” value was 12.9 (0.6)/11.3 (0.5) % and the “Te % (SEM) 4 h” value was 19.2 (1.3)/12.1 (0.6) %.
In the case of `O=C(/C=C/c1ccc(O)cc1)O[C@@H](C(=O)O)[C@@H](O)C(=O)O` [Coutaric acid], the “Detection / transport to lower compartment (brain side) of HBMEC-BBB model” value (ASFE extract) is reported as “not detected in the lower compartment”.
In the case of Farnesene, the “Te % (SEM) 2 h” value is reported as 46.0 (2.1) % and the “Te % (SEM) 4 h” value is reported as 50.9 (3.1) %.
`COc1cc(C(=O)O)ccc1O` [Vanillic acid] was tested, and the “Te % (SEM) 2 h” value [1] was 38.9 (1.2) % and the “Te % (SEM) 4 h” value [2] was 42.2 (0.7) %.
In the case of `C=C[C@]1(C)CC[C@@H](C(C)(C)O)C[C@H]1C(=C)C` [Elemol], the “Te % (SEM) 2 h” value is reported as 24.6 (0.5) % and the “Te % (SEM) 4 h” value is reported as 25.4 (1.6) %.
With Phytol the “Te % (SEM) 2 h” value (human) was 15.6 (0.3) % and the “Te % (SEM) 4 h” value (human) was 43.5 (3.7) %.
With `O=C(O)C=Cc1ccc(O)cc1` [p-Coumaric acid] the “Te % (SEM) 2 h” value (human) was 9.1 (0.6) % and the “Te % (SEM) 4 h” value (human) was 37.8 (2.5) %.
With `O=C(/C=C/c1ccc(O)c(O)c1)O[C@H](Cc1ccc(O)c(O)c1)C(=O)O` [Rosmarinic acid] the “Te % (SEM) 2 h” value (human) was 41.0 (2.3) % and the “Te % (SEM) 4 h” value (human) was 90.3 (4.2) %.
In the case of `C=CC(=C)CC/C=C(\C)CC/C=C(\C)C=O` [β-Sinensal], the “Te % (SEM) 2 h” value is reported as 31.6 (1.2) % and the “Te % (SEM) 4 h” value is reported as 38.2 (2.4) %.
For `CC(C)=CCC/C(C)=C/CC/C(C)=C/CC/C(C)=C/CO` [Geranylgeraniol], the “Te % (SEM) 2 h” value was 30.2 (1.1) % and the “Te % (SEM) 4 h” value was 56.6 (3.1) %.
`CC(C)C1CCC2(C)C3CC=C(C=O)C2C13` (stereo not drawn) [Ylangenal] was tested, and the “Te % (SEM) 2 h” value was 32.0 (2.7) % and the “Te % (SEM) 4 h” value was 36.9 (0.4) %.
With `C[C@H]1[C@H](C)CC[C@]2(CO)CC[C@]3(C)C(=CC[C@@H]4[C@@]5(C)CC[C@H](O)C(C)(C)[C@@H]5CC[C@]43C)[C@H]12` (single isomer, unassigned) [Uvaol Isomer II, Uvaol] the “Te % (SEM) 2 h” value (human) was 17.7 (1.0) % and the “Te % (SEM) 4 h” value (human) was 38.3 (0.7) %.
`C/C=C/C(=O)C1=C(C)CC(O)CC1(C)C` (stereo not drawn) [3-hydroxy-β-damascone] was tested, and the “Te % (SEM) 2 h” value was 84.5 (3.2) %.
For `CC1=C[C@@H]2C(=C(C)CC[C@H]2C(C)C)CC1` [δ-Cadinene], the “Te % (SEM) 2 h” value was 21.5 (0.8) % and the “Te % (SEM) 4 h” value was 28.9 (2.4) %.
Cymenol was tested, and the “Te % (SEM) 2 h” value was 51.5 (1.8) %.
In the case of `CC1=CCC2C(C1)C2(C)C` (stereo not drawn) [3-Carene], the “Te % (SEM) 4 h” value (human, 4 h, 15 µg/mL) is reported as 20.3 (0.9) %.
`O=C(O)c1ccc(O)c(O)c1` [Protocatechuic acid] was tested, and the “Te % (SEM) 2 h” value [1] was 45.1 (3.8) % and the “Te % (SEM) 4 h” value [2] was 71.7 (3.2) %.
For `CC(C)[C@H](C)CC[C@@H](C)[C@H]1CC[C@H]2[C@@H]3CC=C4C[C@@H](O)CC[C@]4(C)[C@H]3CC[C@]12C` [Campesterol], the “Te % (SEM) 2 h” value (human) was 68.7 (2.2) %.
`O=C(O)c1ccc(O)cc1` [p-Salycilic acid] was tested, and the “Te % (SEM) 2 h” value was 25.5 (1.8) % and the “Te % (SEM) 4 h” value was 43.4 (1.3) %.
